According to patent US10738009B2, “Pyridone amides as modulators of sodium channels” (VERTEX PHARMACEUTICALS INCORPORATED, priority 2013, dated 2020):

Legend:
[1] = Microsomal stability assay, human liver microsomes (HLM); format: in vitro ADME; conditions: human liver microsomes 0.5 mg/mL, 1 uM substrate, 2 mM NADPH, 37° C., vs time zero control
Description: (§1) Microsomal Stability Assay. Compounds were incubated at 37° C. and shaken for 30 minutes in a phosphate buffered solution with either rat or human liver microsomes and the cofactor NADPH. A time zero control was similarly prepared, however with NADPH excluded. The final incubation concentrations were 1 uM substrate (0.2% DMSO), 0.5 mg/mL liver microsome, 2 mM NADPH, and 0.1 M phosphate. Reactions were quenched and proteins precipitated with the addition of 2 volume equivalents of ice cold acetonitrile containing an internal standard. Following a centrifugation step, aliquots from the quenched incubations were further diluted with 4 volume equivalents of a 50% aqueous methanol solution and then subjected to LC/MS/MS analysis for quantitation of parent compound. Microsome stability values were calculated as the percent of substrate remaining after 30 minutes referenced against the time zero control.
(§2) Microsomal stability in rat and human liver microsomes were determined for selected compounds of the present invention using the above assay. Table 4 provides the human liver microsomes (“HLM”) and rat liver microsomes (“RLM”) stability data as the percent of compound remaining after 30 minutes referenced against the time zero control.

[2] = Microsomal stability assay, rat liver microsomes (RLM); format: in vitro ADME; conditions: rat liver microsomes 0.5 mg/mL, 1 uM substrate, 2 mM NADPH, 37° C., vs time zero control
Description: as §1, §2

SMILES	HLM (% remaining @ 30 minutes) [1]	RLM (% remaining @ 30 minutes) [2]
O=C(Nc1cc[nH]c(=O)c1)c1cc(C(F)(F)F)ccc1Oc1ccc(F)cc1 [Compound 2, 2-(4-fluorophenoxy)-N-(2-oxo-1,2-dihydropyridin-4-yl)-5-(trifluoromethyl)benzamide]	100%	
O=C(Nc1cc[nH]c(=O)c1)c1ccc(C(F)(F)F)cc1Oc1ccc(F)cc1F [Compound 7, 2-(2,4-difluorophenoxy)-N-(2-oxo-1,2-dihydropyridin-4-yl)-4-(trifluoromethyl)benzamide]	97%	99%
COCCOc1ccc(Oc2cc(C(F)(F)F)ccc2C(=O)Nc2cc[nH]c(=O)c2)cc1 [Compound 8, 2-(4-(2-methoxyethoxy)phenoxy)-N-(2-oxo-1,2-dihydropyridin-4-yl)-4-(trifluoromethyl)benzamide]	90%	86%
Cc1cc(F)ccc1Oc1cc(C(F)(F)F)ccc1C(=O)Nc1cc[nH]c(=O)c1 [Compound 10, 2-(4-fluoro-2-methylphenoxy)-N-(2-oxo-1,2-dihydropyridin-4-yl)-4-(trifluoromethyl)benzamide]	93%	82%
Cc1cc(F)ccc1Oc1cc(Cl)ccc1C(=O)Nc1cc[nH]c(=O)c1 [Compound 20, 4-chloro-2-(4-fluoro-2-methylphenoxy)-N-(2-oxo-1,2-dihydropyridin-4-yl)benzamide]		88%
Cc1ccccc1Oc1ccc(C(F)(F)F)cc1C(=O)Nc1cc[nH]c(=O)c1 [Compound 28, N-(2-oxo-1,2-dihydropyridin-4-yl)-2-(o-tolyloxy)-5-(trifluoromethyl)benzamide]	79%	70%
COc1cc(F)ccc1Oc1ccc(C(F)(F)F)cc1C(=O)Nc1cc[nH]c(=O)c1 [Compound 30, 2-(4-fluoro-2-methoxyphenoxy)-N-(2-oxo-1,2-dihydropyridin-4-yl)-5-(trifluoromethyl)benzamide]	76%	78%
Cc1cc(F)ccc1Oc1ccc(C(F)(F)F)cc1C(=O)Nc1cc[nH]c(=O)c1 [Compound 31, 2-(4-fluoro-2-methylphenoxy)-N-(2-oxo-1,2-dihydropyridin-4-yl)-5-(trifluoromethyl)benzamide]	92%	91%
O=C(Nc1cc[nH]c(=O)c1)c1cc(OC(F)(F)F)ccc1Oc1ccc(F)cc1F [Compound 33, 2-(2,4-difluorophenoxy)-N-(2-oxo-1,2-dihydropyridin-4-yl)-5-(trifluoromethoxy)benzamide]	100%	110%
O=C(Nc1cc[nH]c(=O)c1)c1cc(OC(F)(F)F)ccc1Oc1ccc(F)cc1Cl [Compound 37, 2-(2-chloro-4-fluorophenoxy)-N-(2-oxo-1,2-dihydropyridin-4-yl)-5-(trifluoromethoxy)benzamide]	100%	97%
CCOc1ccc(Oc2ccc(C(F)(F)F)cc2C(=O)Nc2cc[nH]c(=O)c2)cc1 [Compound 44, 2-(4-ethoxyphenoxy)-N-(2-oxo-1,2-dihydropyridin-4-yl)-5-(trifluoromethyl)benzamide]	93%	84%
O=C(Nc1cc[nH]c(=O)c1)c1cc(Cl)ccc1Oc1ccc(F)cc1Cl [Compound 66, 5-chloro-2-(2-chloro-4-fluorophenoxy)-N-(2-oxo-1,2-dihydropyridin-4-yl)benzamide]	100%	
Cc1cc(F)ccc1Oc1ccc(Cl)cc1C(=O)Nc1cc[nH]c(=O)c1 [Compound 68, 5-chloro-2-(4-fluoro-2-methylphenoxy)-N-(2-oxo-1,2-dihydropyridin-4-yl)benzamide]	98%	72%
O=C(Nc1cc[nH]c(=O)c1)c1cc(C(F)(F)F)ccc1Oc1ccc(OC(F)(F)F)cc1 [Compound 72, N-(2-oxo-1,2-dihydropyridin-4-yl)-2-(4-(trifluoromethoxy)phenoxy)-5-(trifluoromethyl)benzamide]	100%	
O=C(Nc1cc[nH]c(=O)c1)c1cc(C(F)(F)F)ccc1Oc1ccccc1OC(F)(F)F [Compound 75, N-(2-oxo-1,2-dihydropyridin-4-yl)-2-(2-(trifluoromethoxy)phenoxy)-5-(trifluoromethyl)benzamide]	90%	95%
O=C(Nc1cc[nH]c(=O)c1)c1cc(C(F)(F)F)ccc1Oc1ccccc1OC(F)F [Compound 76, 2-(2-(difluoromethoxy)phenoxy)-N-(2-oxo-1,2-dihydropyridin-4-yl)-5-(trifluoromethyl)benzamide]	97%	93%
O=C(Nc1cc[nH]c(=O)c1)c1ccc(C(F)(F)F)cc1Oc1ccc(OC(F)(F)F)cc1 [Compound 79, N-(2-oxo-1,2-dihydropyridin-4-yl)-2-(4-(trifluoromethoxy)phenoxy)-4-(trifluoromethyl)benzamide]		100%
O=C(Nc1cc[nH]c(=O)c1)c1ccc(C(F)(F)F)cc1Oc1ccc(OC(F)F)cc1 [Compound 82, 2-(4-(difluoromethoxy)phenoxy)-N-(2-oxo-1,2-dihydropyridin-4-yl)-4-(trifluoromethyl)benzamide]		98%
O=C(Nc1cc[nH]c(=O)c1)c1ccc(C(F)(F)C(F)(F)F)cc1Oc1ccc(F)cc1 [Compound 88, 2-(4-fluorophenoxy)-N-(2-oxo-1,2-dihydropyridin-4-yl)-4-(perfluoroethyl)benzamide]	100%	
O=C(Nc1cc[nH]c(=O)c1)c1cc(F)ccc1Oc1ccc(OC(F)(F)F)cc1 [Compound 101, 5-fluoro-N-(2-oxo-1,2-dihydropyridin-4-yl)-2-(4-(trifluoromethoxy)phenoxy)benzamide]	97%	89%
O=C(Nc1cc[nH]c(=O)c1)c1cc(F)c(Cl)cc1Oc1ccc(F)cc1Cl [Compound 109, 4-chloro-2-(2-chloro-4-fluorophenoxy)-5-fluoro-N-(2-oxo-1,2-dihydropyridin-4-yl)benzamide]		100%
COc1cc(F)ccc1Oc1cc(C(F)(F)C(F)(F)F)ccc1C(=O)Nc1cc[nH]c(=O)c1 [Compound 111, 2-(4-fluoro-2-methoxyphenoxy)-N-(2-oxo-1,2-dihydropyridin-4-yl)-4-(perfluoroethyl)benzamide]	91%	90%
COc1cc(F)ccc1Oc1cc(Cl)c(Cl)cc1C(=O)Nc1cc[nH]c(=O)c1 [Compound 114, 4,5-dichloro-2-(4-fluoro-2-methoxyphenoxy)-N-(2-oxo-1,2-dihydropyridin-4-yl)benzamide]	91%	82%
COc1ccc(Oc2cc(Cl)c(Cl)cc2C(=O)Nc2cc[nH]c(=O)c2)cc1F [Compound 115, 4,5-dichloro-2-(3-fluoro-4-methoxyphenoxy)-N-(2-oxo-1,2-dihydropyridin-4-yl)benzamide]		95%
O=C(Nc1cc[nH]c(=O)c1)c1ccc(C(F)(F)F)cc1OCC1CCCC1 [Compound 120, 2-(cyclopentylmethoxy)-N-(2-oxo-1,2-dihydropyridin-4-yl)-4-(trifluoromethyl)benzamide]	87%	79%
O=C(Nc1cc[nH]c(=O)c1)c1ccc(C(F)(F)F)cc1OCCCC(F)(F)F [Compound 123, N-(2-oxo-1,2-dihydropyridin-4-yl)-2-(4,4,4-trifluorobutoxy)-4-(trifluoromethyl)benzamide]		98%
CC(C)(C)c1ccc(C(=O)Nc2ccc(=O)[nH]c2)c(Oc2ccc(C(F)(F)F)nc2)c1 [Compound 142, 4-(tert-butyl)-N-(6-oxo-1,6-dihydropyridin-3-yl)-2-((6-(trifluoromethyl)pyridin-3-yl)oxy)benzamide]	38%	50%
O=C(Nc1cc[nH]c(=O)c1)c1c(Oc2ccc(F)cc2F)cc(C(F)(F)F)cc1C(F)(F)F [Compound 152, 2-(2,4-difluorophenoxy)-N-(2-oxo-1,2-dihydropyridin-4-yl)-4,6-bis(trifluoromethyl)benzamide]		100%
